The numbers were not newly measured in patent EP2594258B1, “Oral gel comprising praziquantel” (Veterinärmedizinische Universität Wien, priority 2011, dated 2013), which cites them from elsewhere.

`CCCSc1ccc2nc(NC(=O)OC)[nH]c2c1` [albendazole]: in the data set with alpacas, the intoxication following treatment entry is on record as “Lethal intoxications”.

As to `O=C(C1CCCCC1)N1CC(=O)N2CCc3ccccc3C2C1` (racemic) [Praziquantel, (RS)-2-Cyclohexylcarbonyl-2,3,4,6,7,11b-hexahydro-1H-pyrazino(2,1-a) isoquinolin-4-on], the solubility in chloroform result (chloroform) is reported as “easily soluble”. In addition, under “dimethylsulfoxide”, the solubility in dimethylsulfoxide result is on record as “easily soluble”. Further, for the setting “ethanol”, the solubility in ethanol entry was “soluble”. Also, the solubility in water entry (water) is listed as “up to 400 mg/L”.
